Columns and labels:
Test in all cases: luciferase reporter gene transactivation assay (ckCYP1A5 promoter) in transfected COS-7 cells; LOEC
Type in all cases: cell-based
[1] = target: T1, common cormorant AHR1 (ccAHR1) (Phalacrocorax carbo, UniProt Q76CM2)
T1 construct: gene AHR 1; full-length cDNA in pcDNA3.1 zeo (+), expressed in COS-7 cells; with chicken ARNT1 (ckARNT1)
T1 sequence (Q76CM2 1-860): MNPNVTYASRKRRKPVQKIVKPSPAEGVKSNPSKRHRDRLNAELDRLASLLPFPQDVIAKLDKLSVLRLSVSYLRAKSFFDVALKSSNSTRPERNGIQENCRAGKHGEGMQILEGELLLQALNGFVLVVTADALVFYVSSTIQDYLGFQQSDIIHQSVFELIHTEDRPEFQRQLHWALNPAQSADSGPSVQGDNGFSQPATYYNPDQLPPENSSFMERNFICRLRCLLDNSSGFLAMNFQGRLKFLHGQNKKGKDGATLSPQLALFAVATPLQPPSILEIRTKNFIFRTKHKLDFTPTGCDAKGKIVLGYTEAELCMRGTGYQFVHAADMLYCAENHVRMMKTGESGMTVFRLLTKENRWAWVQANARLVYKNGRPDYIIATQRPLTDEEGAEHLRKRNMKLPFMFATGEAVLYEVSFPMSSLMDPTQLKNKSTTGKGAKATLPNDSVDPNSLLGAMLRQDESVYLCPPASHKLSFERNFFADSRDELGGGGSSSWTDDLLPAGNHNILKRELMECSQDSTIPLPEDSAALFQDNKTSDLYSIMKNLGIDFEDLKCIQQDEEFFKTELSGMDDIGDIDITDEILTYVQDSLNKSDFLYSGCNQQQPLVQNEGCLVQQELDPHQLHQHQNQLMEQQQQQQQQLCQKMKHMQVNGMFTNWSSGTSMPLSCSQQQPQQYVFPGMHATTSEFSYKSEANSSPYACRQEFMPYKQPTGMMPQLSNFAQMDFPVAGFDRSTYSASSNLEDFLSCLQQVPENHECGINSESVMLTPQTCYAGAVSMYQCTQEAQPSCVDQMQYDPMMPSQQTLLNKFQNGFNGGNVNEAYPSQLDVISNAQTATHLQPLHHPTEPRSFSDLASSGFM

[2] = target: T2, black-footed albatross AHR1 (bfaAHR1) (Phoebastria nigripes, UniProt Q76EQ7)
T2 construct: full-length cDNA in pcDNA3.1 zeo (+), expressed in COS-7 cells; with chicken ARNT1 (ckARNT1)
T2 sequence (Q76EQ7 1-861): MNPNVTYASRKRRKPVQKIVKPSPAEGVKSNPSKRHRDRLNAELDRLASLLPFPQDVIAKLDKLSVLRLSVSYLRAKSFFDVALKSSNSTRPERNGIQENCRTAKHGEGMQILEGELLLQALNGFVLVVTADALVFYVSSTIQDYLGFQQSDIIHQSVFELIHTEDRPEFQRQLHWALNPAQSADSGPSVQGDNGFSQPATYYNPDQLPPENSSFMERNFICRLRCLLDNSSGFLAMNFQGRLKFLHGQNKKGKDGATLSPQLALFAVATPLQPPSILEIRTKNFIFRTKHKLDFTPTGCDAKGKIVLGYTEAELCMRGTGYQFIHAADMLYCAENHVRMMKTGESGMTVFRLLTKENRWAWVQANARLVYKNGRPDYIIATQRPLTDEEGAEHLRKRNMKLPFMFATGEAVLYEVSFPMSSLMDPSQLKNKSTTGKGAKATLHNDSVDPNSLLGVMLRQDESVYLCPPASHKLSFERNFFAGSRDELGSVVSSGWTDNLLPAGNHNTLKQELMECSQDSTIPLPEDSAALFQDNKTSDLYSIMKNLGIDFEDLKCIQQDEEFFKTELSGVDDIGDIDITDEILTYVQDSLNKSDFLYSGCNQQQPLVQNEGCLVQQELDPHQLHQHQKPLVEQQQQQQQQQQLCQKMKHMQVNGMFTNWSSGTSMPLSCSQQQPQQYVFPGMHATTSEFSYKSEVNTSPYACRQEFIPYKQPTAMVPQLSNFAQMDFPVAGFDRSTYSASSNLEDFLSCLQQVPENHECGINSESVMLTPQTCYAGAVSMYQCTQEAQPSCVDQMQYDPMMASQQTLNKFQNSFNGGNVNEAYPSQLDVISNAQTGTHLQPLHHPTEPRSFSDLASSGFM

chicken AHR1 (ckAHR1) = target: T3, chicken AHR1 (ckAHR1) (Gallus gallus, UniProt Q9I9E2)
T3 construct: full-length cDNA in pcDNA3.1 zeo (+), expressed in COS-7 cells; with chicken ARNT1 (ckARNT1)
T3 sequence (Q9I9E2 1-858): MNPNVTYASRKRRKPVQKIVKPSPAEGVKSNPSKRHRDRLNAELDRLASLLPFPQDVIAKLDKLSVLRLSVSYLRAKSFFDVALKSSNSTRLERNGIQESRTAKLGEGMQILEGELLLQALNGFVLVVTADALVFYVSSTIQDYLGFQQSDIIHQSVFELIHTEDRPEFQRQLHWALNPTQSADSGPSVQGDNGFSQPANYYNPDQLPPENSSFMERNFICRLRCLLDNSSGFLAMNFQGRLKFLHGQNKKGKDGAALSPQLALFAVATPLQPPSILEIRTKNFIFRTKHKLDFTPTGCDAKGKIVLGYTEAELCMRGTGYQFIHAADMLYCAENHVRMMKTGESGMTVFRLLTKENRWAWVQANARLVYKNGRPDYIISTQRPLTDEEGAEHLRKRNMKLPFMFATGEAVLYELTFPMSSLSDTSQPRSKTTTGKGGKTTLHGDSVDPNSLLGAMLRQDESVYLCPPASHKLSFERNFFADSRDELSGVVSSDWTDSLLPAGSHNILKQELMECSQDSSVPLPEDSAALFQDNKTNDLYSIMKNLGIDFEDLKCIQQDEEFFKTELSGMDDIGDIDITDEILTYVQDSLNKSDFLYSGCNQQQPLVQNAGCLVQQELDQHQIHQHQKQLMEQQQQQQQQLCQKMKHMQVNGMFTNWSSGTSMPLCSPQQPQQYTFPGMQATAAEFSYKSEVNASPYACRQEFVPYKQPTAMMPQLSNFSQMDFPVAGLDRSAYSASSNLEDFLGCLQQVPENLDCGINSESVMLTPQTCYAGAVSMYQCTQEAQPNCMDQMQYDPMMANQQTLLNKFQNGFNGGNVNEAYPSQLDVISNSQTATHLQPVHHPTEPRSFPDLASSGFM

## Brc1ccc2c(c1)Oc1cc(Br)cc(Br)c1O2 [1,3,7-TriBDD, 1,3,7-tribromodibenzo-p-dioxin]
[1]
  luciferase reporter gene transactivation assay (ckCYP1A5 promoter) in transfecte: 120 nM
[2]
  luciferase reporter gene transactivation assay (ckCYP1A5 promoter) in transfecte: 12 nM
Chicken AHR1 (ckAHR1)
  luciferase reporter gene transactivation assay (ckCYP1A5 promoter) in transfecte: 1.2 nM
